Source: publication PMC10812672, “Short Antimicrobial Peptide Derived from the Venom Gland Transcriptome of Pamphobeteus verdolaga Increases Gentamicin Susceptibility of Multidrug-Resistant Klebsiella pneumoniae” (Antibiotics, 2023)
Ends that are not written are not given here.

System: human peripheral blood mononuclear cells (hPBMCs)
Assay: Cytotoxicity, MTT
Type: cell-based
Method: The cytotoxicity of PvAMP66 was assessed in vitro against human red blood cells (hRBCs) and human peripheral blood mononuclear cells (hPBMCs) using concentrations of 1.56–200 µM. At the highest concentration, PvAMP66 induced 60% hemolysis in human erythrocytes (Figure 3a), and a decrease in viability of approximately 40% in the hPBMCs (Figure 3b). […] Ratios between CC50 or HC50, and the IC50 values registered for the bacterial strains, indicate that PvAMP66 has higher selectivity for interacting with prokaryotic membranes (Table 4).
Ten milliliters of fresh blood was mixed with 10 mL of PBS pH 7.20 in 50 mL conical tubes. Then, 10 mL of Ficoll® density gradient media were placed in 50 mL conical tubes, and then the blood/PBS solution was gently poured over without disturbing the interface. The mixture was centrifuged at RT and 400× g for 30 min with the brake off (Universal 32 R, Hettich Group, Kirchlengern, Westphalia, Germany), and the upper plasma phase was removed and discarded. The leukocyte phase was gently removed from the conical tube, placed in a new 50 mL conical tube, and density gradient media was removed in two washings with 25 mL of PBS pH 7.20 at RT and 400× g for 10 min. Cells were then resuspended in 3 mL of RPMI media. Subsequently, 10 µL of this suspension was mixed with 90 µL of Trypan blue in a 0.50 mL polypropylene vial. The cell count and cell viability were determined in a Neubauer counting chamber. Then, cells were suspended to 3 × 10^5 cells/mL, ensuring that cell viability remained above 98%. All peptides were diluted in RPMI media to final concentrations ranging between 1.56 and 200 µM. Subsequently, 20 µL of each peptide solution was added in triplicate into 96-well plates, along with 80 µL of fresh RPMI media. For negative and positive cytotoxicity controls, six wells received 20 µL of PBS and 30% v/v H2O2, respectively. Blank wells without cells were also included. Next, 100 µL of a cell suspension 3 × 10^5 cells/mL was added to each well, and the plates were incubated for 24 h at 37 °C in a 5% CO2 atmosphere (Heratherm, ThermoFisher Scientific, Waltham, MA, USA). After 24 h, plates were centrifuged at RT and 1000× g for 10 min (Sorvall Legend XFR, ThermoFisher Scientific, Waltham, MA, USA). Then, 180 µL of the supernatant was collected, and 28 µL of a 4 mg/mL sterile MTT solution was added. The plates were then incubated for 4 h at 37 °C in a 5% CO2 atmosphere (Heratherm, ThermoFisher Scientific, Waltham, MA, USA). After the second incubation, 130 µL of DMSO was added to each well and plates were agitated at 50 rpm. The solubilized formazan was then measured at 570 nm using a Multiskan SkyHigh spectrophotometer (ThermoFisher Scientific, Waltham, MA, USA). All peptides were evaluated in three independent assays and the viability percentages were calculated as follows: Viability %=1−AbsPEPTIDE−Median AbsBLANK/Median AbsH2O2−Median AbsBLANK×100

Substance: WKKIKKFF-NH2 [PvAMP66]
- CC50 (Cytotoxic Concentration 50) (hPBMCs in RPMI, 24 h 37 °C 5% CO2, MTT 570 nm, 1.56–200 µM, logistic regression, 95% CI in parentheses, ND = above evaluated range): 172.03 µM
- decrease in viability (hPBMCs, highest concentration (200 µM), 24 h, MTT): approximately 40%
- CC50/IC50 (selectivity index vs IC50 E. coli ATCC 25922): 4.49
- CC50/IC50 (selectivity index vs IC50 K. pneumoniae ATCC BAA-1705): 3.78
- CC50/IC50 (selectivity index vs IC50 MDR K. pneumoniae): 10.89
- CC50/IC50 (selectivity index vs IC50 P. aeruginosa ATCC 9027): 13.58
- CC50/IC50 (selectivity index vs IC50 S. aureus ATCC 29213): 6.24
